Series [1] concerns HEK 293 cells. Put plainly: NRU assay (lysosomal activity). It is filed as cell-based, human. On the procedure: (§1) The cytotoxic potential of the veterinary drug and its mixtures with cannabidiol at two non-toxic concentrations: 1.56 and 3.15 µg/mL, on the human SH-SY5Y, HepG2 and HEK 293 cell lines was assessed by decreased viability of the cells within five biochemical endpoints: mitochondrial activity and lysosomal activity (MTT assays, reducing the tetrazolium dye MTT 3-(4,5-dimethylthiazol-2-yl)-2,5-diphenyltetrazolium bromide and neutral red uptake (NRU) assays), total protein content (TPC assay), cellular membrane integrity (leakage lactate dehydrogenase (LDH) assay) and DNA synthesis (the bromodeoxyuridine/5-bromo-2′-deoxyuridine incorporation into the DNA cells (BrdU) assay) after 72 h exposition. Data obtained from the measurement of the optical density in these assays were transformed to percentages in relation to the negative control group (0.1% DMSO in medium), considered to be 100% for the MTT, NRU, TPC and BrdU assays and 0% for the LDH assay. 1% Trition-X 100 solution in medium was used as the positive controls, (Figure 3).
(§2) The human neuroblastoma (SH-SY5H), hepatoma (HepG2) and kidney cells (HEK 293) cells were purchased from the American Type Culture Collection: ATCCCRL-2266,ATCC HB-8065 and ATCC CRL-1573, respectively. These cells were cultured in Minimum Essential Medium Eagle (MEME) (ATCC). The media were supplemented with 10% FBS, 1% L-glutamine (and 1% antibiotic solution (P4333 Sigma). The cells were maintained in 75 cm^2 cell culture flasks (NUNC) in a humidified incubator at 37 °C in an atmosphere of 5% CO2. The medium was refreshed every two or three days, and the cells were subcultured by 0.25% trypsin–0.02% EDTA after reaching 70–80% confluence. Single cell suspensions were prepared and adjusted to a density of 2 × 10^5 cell/mL^−1 (SH-SY5H), 1 × 10^5 cell/mL^−1 (HepG2) and 1 × 10^5 cell/mL^−1 (HEK-293). The cell suspension was transferred to 96-well plates (100 µL/well) or Lab-Tek chamber slides (8 wells) (Nunc) for staining and incubated for 24 h before the exposure to the studied compounds. Stock solutions of tiamulin fumarate and cannabidiol were prepared in DMSO and diluted with culture medium to obtain a concentration range from 1.56 to 200 µg/mL and 1.56 or 3.156 µg/mL, respectively. […] Cytotoxicity was assessed after 72 h of exposure of the cells to the compounds. […]
(§3) This method is based on staining living cells with neutral red, which readily diffuses through the plasma membrane and accumulates in lysosomes. […] After 10 min of shaking, the absorbance of the dissolved NR was measured using a Synergy 2 Multi-Mode Microplate Reader (BioTek® Instruments Inc., Winooski, VT, USA) at 540 nm using a blank as a reference. Cytotoxicity was expressed as a percentage of the negative control (0.1% DMSO in medium). […]

The test system of series [2] is SH-SY5Y cells. Nature of the series: NRU assay (lysosomal activity). The following applies: 72 h. It is filed as cell-based, human. On the procedure:
as §1, §2, §3

Series [3] relates to HepG2 cells. Put plainly: TPC assay (total protein content, proliferation). It is filed as cell-based, human. Particulars: HepG2, 72 h. On the procedure: as §1
(§4) The human neuroblastoma (SH-SY5H), hepatoma (HepG2) and kidney cells (HEK 293) cells were purchased from the American Type Culture Collection: ATCCCRL-2266,ATCC HB-8065 and ATCC CRL-1573, respectively. These cells were cultured in Minimum Essential Medium Eagle (MEME) (ATCC). The media were supplemented with 10% FBS, 1% L-glutamine (and 1% antibiotic solution (P4333 Sigma). The cells were maintained in 75 cm^2 cell culture flasks (NUNC) in a humidified incubator at 37 °C in an atmosphere of 5% CO2. The medium was refreshed every two or three days, and the cells were subcultured by 0.25% trypsin–0.02% EDTA after reaching 70–80% confluence. Single cell suspensions were prepared and adjusted to a density of 2 × 10^5 cell/mL^−1 (SH-SY5H), 1 × 10^5 cell/mL^−1 (HepG2) and 1 × 10^5 cell/mL^−1 (HEK-293). The cell suspension was transferred to 96-well plates (100 µL/well) or Lab-Tek chamber slides (8 wells) (Nunc) for staining and incubated for 24 h before the exposure to the studied compounds. Stock solutions of tiamulin fumarate and cannabidiol were prepared in DMSO and diluted with culture medium to obtain a concentration range from 1.56 to 200 µg/mL and 1.56 or 3.156 µg/mL, respectively. The selection of tiamulin concentrations was based on data from the literature and pilot studies. The final concentration of DMSO was 0.1% in the medium. The same final concentrations of the solvent and the 1% Trition-X 100 solution were used as the negative and positive controls, respectively. A total of 500 µM hydrogen peroxide (H2O2) in was used as the positive control in the DCFH assay. […] As a negative control, cultured cells were grown in the absence of studied compounds. Each concentration was tested in six replicates in three independent experiments. Cytotoxicity was assessed after 72 h of exposure of the cells to the compounds. The medium was not changed during the incubation time.
This assay is based upon staining the total cellular protein (proliferation). After the incubation, the medium containing the drug was removed, and 100 µL Coomassie brilliant blue R-250 dye was added to each well. The plate was shaken for 10 min. Then, the stain was removed and the cells were rinsed twice with 100 µL of washing solution (glacial acetic acid/ethanol/water, 5:10:85, v:v:v). After that, 100 µL of the desorbing solution (1 M potassium acetate) was added, and plates were shaken again for 10 min. The absorbance was measured at 595 nm in a Synergy 2 Multi-Mode Microplate Reader (BioTek® Instruments Inc., Winooski, VT, USA) using a blank as a reference. Cytotoxicity was expressed as a percentage of the negative control (0.1% DMSO in medium).
This study was performed in three independent experiments. The obtained results are presented as mean values ± SD (standard deviation). […]

For series [4], the system named is HepG2 cells. Put plainly: NRU assay (lysosomal activity). It is filed as cell-based. The following applies: Homo sapiens, HepG2, 72 h, read-out: inhibited concentration (IC50), NRU. On the procedure:
as §1, with “Data obtained from the measurement of the optical density in these assays were transformed to percentages in relation to the negative control group (0.1% DMSO in medium), considered to be 100% for the MTT, NRU, TPC and BrdU assays and 0% for the LDH assay. 1% Trition-X 100 solution in medium was used as the positive controls, (Figure 3).” left out
The human neuroblastoma (SH-SY5H), hepatoma (HepG2) and kidney cells (HEK 293) cells were purchased from the American Type Culture Collection: ATCCCRL-2266,ATCC HB-8065 and ATCC CRL-1573, respectively. […] Cytotoxicity was assessed after 72 h of exposure of the cells to the compounds. […]
This method is based on staining living cells with neutral red, which readily diffuses through the plasma membrane and accumulates in lysosomes. […] After 10 min of shaking, the absorbance of the dissolved NR was measured using a Synergy 2 Multi-Mode Microplate Reader (BioTek® Instruments Inc., Winooski, VT, USA) at 540 nm using a blank as a reference. […]

For series [5], the system named is HEK-293 cells. Nature of the series: DCFH-DA assay of reactive oxygen species (ROS). Particulars: HEK-293, lowest concentration of tiamulin, 72 h. It is filed as cell-based, human. Here is the method:
as §4, with “Each concentration was tested in six replicates in three independent experiments.” left out, “The medium was not changed during the incubation time.” left out
(§5) Intracellular levels of ROS were evaluated using the redox-sensitive fluorescent dye DCFH-DA [62]. […] After 72 h of incubation, the fluorescence of 2′,7′-dichlorofluorescein (DCF) was measured. Fluorescence was determined at 485/530 nm using a fluorescence microplate reader (BioTek® Instruments Inc., Winooski, VT, USA).

Series [6] relates to HepG2 cells. Nature of the series: DCFH-DA assay of reactive oxygen species (ROS). It is filed as cell-based, human. Particulars: HepG2, lowest concentration of tiamulin, 72 h. On the procedure:
as §4, with “Each concentration was tested in six replicates in three independent experiments.” left out, “The medium was not changed during the incubation time.” left out
as §5

For series [7], the system named is SH-SY5Y cells. Put plainly: DCFH-DA assay of reactive oxygen species (ROS). The format is cell-based, human. Particulars: lowest concentration of tiamulin, 72 h. On the procedure:
as §4, with “Each concentration was tested in six replicates in three independent experiments.” left out, “The medium was not changed during the incubation time.” left out
as §5

For series [8], the system named is SH-SY5Y, HepG2 and HEK-293 cells. Put plainly: Cellular morphology, May-Grünwald-Giemsa staining. The format is cell-based, human. The following applies: May-Grunwald staining. On the procedure:
This method was used to illustrate the changes that occurred in cell morphology under the influence of the tested compounds. The staining was performed on 24-well plates. The cells at a density of 1 × 10^5 cells/mL were used. After 24 h of incubation with the examined drugs or without them (control), the culture media was removed and the cells were stained with 1 mL of May–Grünwald dye for 3 min at room temperature. Then, 1 mL of deionized water was added to each plate. After 3 min of incubation at room temperature, the liquid was removed. All the plates were rinsed with deionized water, and then the cells were stained with Giemsa dye (dilution 1:20) for 30 min at room temperature. After this time, the dye was removed and the wells were rinsed with 1 mL of deionized water and then allowed to dry. The images were taken using a light microscope (Zeiss, Obercochem, Germany).

SMILES strings stand for the structures. Where a name gives a salt, the structure may show the parent alone.

As to `C=C[C@]1(C)C[C@@H](OC(=O)CSCCN(CC)CC)[C@]2(C)[C@H](C)CC[C@]3(CCC(=O)[C@H]32)[C@@H](C)[C@@H]1O` [T, tiamulin fumarate], the “tiamulin concentration that inhibited lysosomal activity” value is 25 µg/mL in series [1] (HEK-293, 72 h) and 1.56 µg/mL in series [2] (significant (p ≤ 0.05) vs negative control). Also, the IC50 amounted to 34.5 ± 1.1 µg/mL in series [1] (Homo sapiens, HEK293, 72 h, read-out: inhibited concentration (IC50), NRU); 2.1 ± 0.4 µg/mL in series [2] (Homo sapiens, read-out: inhibited concentration (IC50), NRU); 26.7 ± 1.4 µg/mL in series [3] (Homo sapiens, read-out: inhibited concentration (IC50), TPC); 34.7 ± 1 µg/mL in series [4]. Also, in series [3], the “tiamulin concentration that inhibited cell proliferation” value was 50 µg/mL. For the same compound, the results for the “increase in fluorescence intensity of the probes (ROS)” value in series [5], in series [6] and in series [7] were 91%, 44% and 66%, respectively. The “changes in cell morphology” value in series [8] is “detachment from the adhesion surface”.
